Test results published in BindingDB's records for doi:10.1021/jm00170a025 (Royal Danish School of Pharmacy, 1990).

Assay: Effective concentration required to stimulate Adenylate cyclase

EC50: 0.21 µM
Structure (SMILES): Cc1ccc([C@H]2CNCCc3cc(O)c(O)cc32)cc1
